Reference: patent US20250129067A1 (Progentos Therapeutics, Inc., priority 2021, published 2025)
Like-named read-outs stand apart in the source and are kept apart here. Blank lines part the entries; values can stand above or below the molecule they belong to.

Legend:
PDGFRα = PDGFRα (Homo sapiens (Human), UniProt P16234); experiment: PDGFRα kinase enzyme assay (Promega PDGFRα Kinase Enzyme System, ADP-Glo); assay type: biochemical; conditions: 11-point dose response, 10,000 nM to 0.169 nM, 150 uM ATP, BLQ = below limit of quantitation
Outline: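 Purified PDGFRα protein (20 ng) reacted with test compound per the Promega kinase system protocol. ADP formed was measured by ADP-Glo luminescence against a standard curve, giving IC50.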

[1] = system: Oligodendrocyte progenitor cells (OPCs)
[2] = system: Oligodendrocyte progenitor cells (OPCs); remark: listed apart in the source
[3] = system: Oligodendrocyte progenitor cells (OPCs); experiment: In vitro OPC differentiation assay, MBP expression (immunocytochemistry); conditions: 72 hours of treatment; fold change over vehicle
[4] = system: Oligodendrocyte progenitor cells (OPCs); experiment: In vitro OPC differentiation assay, GPR17 expression (immunocytochemistry); conditions: 72 hours, fold change over vehicle
[5] = system: GPR17+ cells (newly differentiated oligodendrocytes); experiment: In vivo OPC differentiation, GPR17+ cells in brain; conditions: Mus musculus, po, 24 h, read-out: GPR17 Fold Induction (Over Vehicle)
Experimental: (§1) The ability of newly constructed compounds to drive OPC differentiation and myelination in vivo was tested. The ability of these compounds to drive OPC differentiation in vivo was tested using GPR17 as an indicator of newly differentiated oligodendrocytes.
(§2) Compounds were delivered PO or IP either QD or BID. Mice were dosed once, transiently, or continuously through the treatment period, which ranged from 1-3 days.
(§3) Mice were euthanized by isoflurane exposure and transcardially perfused with 14 mL of PBS (Sigma Cat #P4417-50TAB) followed by 22 mL of 3.2% paraformaldehyde in PBS. The brains were removed and postfixed for a minimum of 24 hours in 20 mL of 3.2% paraformaldehyde.
(§4) 50-micron floating sections were cut using a Leica VT1200S vibratome. Every 24th section, extending through the antero-posterior extent of the brain, was stained. The selected brain sections were washed three times in PBS for 3 minutes each. The floating sections were incubated in the primary antibodies (see Table 10, below) diluted in blocking solution overnight at room temperature on a shaker. […] The next day, the sections were again washed three times in PBS for 3 minutes each and then incubated in the secondary antibodies diluted in blocking solution for 2 hours at room temperature on a shaker. After incubation, the sections were washed three times in PBS for 3 minutes each and mounted on a slide to be imaged using the Olympus Slide Scanner VS200.
(§5) The images were analyzed using a custom protocol developed using Visiopharm software to count GPR17+ cells. Cells were considered GPR17+ if they contained an Olig2 positive nucleus, and intense GPR 17 staining that filled their processes. Statistical analysis was done using one-way ANOVA with multiple comparison in GraphPad Prism software.

[6] = system: newly generated, GPR17+, oligodendrocytes; experiment: in vivo GPR17 assay / in vivo OPC differentiation assay (Examples 242, 245); conditions: healthy mice, single oral dose of 0.1, 0.33, 1 or 3.3 mg/kg, versus vehicle, n=8 mice per group
Experimental: FIGS. 2A and 2B provide representative immunohistochemistry images comparing the in vivo generation of new oligodendrocytes in the brains of mice treated with one of the following: (i) vehicle control (FIG. 2A), or (ii) PDGFRα inhibitor (Compound 6) (PO 5 mg/kg; single dose) (FIG. 2B). The newly generated oligodendrocytes are identified based on upregulation of GPR 17 expression.
Healthy mice received a single oral dose of 0.1 (“2”), 0.33 (“3”), 1 (“4”), or 3.3 (“5”) mg/kg of PDGFRα inhibitor (Compound 26). Control mice received a vehicle control (“1”). The number of newly generated, GPR17+, oligodendrocytes/mm^2 was quantitated via automated image analysis from sections spanning the anterio-posterior axis of the brain. […]
As described elsewhere in the present disclosure, some exemplary PDGFRα inhibitors of the present disclosure are capable of have greater therapeutic effect than inhibitors known in the art, e.g., when an inhibitor known in the art and an exemplary inhibitor provided herein are assayed against a vehicle control. […] For example, in some aspects, a PDGFRα inhibitor of the present disclosure can achieve greater than 2-fold increase in GPR17 expression compared to a vehicle control at a dose of less than 50 mg/kg, as measured using an in vivo GPR17 assay (such as that described in Example 242). […]

[7] = system: GPR17+ cells (newly differentiated oligodendrocytes); conditions: mouse
Experimental: as §1, §2, §3, §4, §5

Sequence of PDGFRα (P16234 24-1089): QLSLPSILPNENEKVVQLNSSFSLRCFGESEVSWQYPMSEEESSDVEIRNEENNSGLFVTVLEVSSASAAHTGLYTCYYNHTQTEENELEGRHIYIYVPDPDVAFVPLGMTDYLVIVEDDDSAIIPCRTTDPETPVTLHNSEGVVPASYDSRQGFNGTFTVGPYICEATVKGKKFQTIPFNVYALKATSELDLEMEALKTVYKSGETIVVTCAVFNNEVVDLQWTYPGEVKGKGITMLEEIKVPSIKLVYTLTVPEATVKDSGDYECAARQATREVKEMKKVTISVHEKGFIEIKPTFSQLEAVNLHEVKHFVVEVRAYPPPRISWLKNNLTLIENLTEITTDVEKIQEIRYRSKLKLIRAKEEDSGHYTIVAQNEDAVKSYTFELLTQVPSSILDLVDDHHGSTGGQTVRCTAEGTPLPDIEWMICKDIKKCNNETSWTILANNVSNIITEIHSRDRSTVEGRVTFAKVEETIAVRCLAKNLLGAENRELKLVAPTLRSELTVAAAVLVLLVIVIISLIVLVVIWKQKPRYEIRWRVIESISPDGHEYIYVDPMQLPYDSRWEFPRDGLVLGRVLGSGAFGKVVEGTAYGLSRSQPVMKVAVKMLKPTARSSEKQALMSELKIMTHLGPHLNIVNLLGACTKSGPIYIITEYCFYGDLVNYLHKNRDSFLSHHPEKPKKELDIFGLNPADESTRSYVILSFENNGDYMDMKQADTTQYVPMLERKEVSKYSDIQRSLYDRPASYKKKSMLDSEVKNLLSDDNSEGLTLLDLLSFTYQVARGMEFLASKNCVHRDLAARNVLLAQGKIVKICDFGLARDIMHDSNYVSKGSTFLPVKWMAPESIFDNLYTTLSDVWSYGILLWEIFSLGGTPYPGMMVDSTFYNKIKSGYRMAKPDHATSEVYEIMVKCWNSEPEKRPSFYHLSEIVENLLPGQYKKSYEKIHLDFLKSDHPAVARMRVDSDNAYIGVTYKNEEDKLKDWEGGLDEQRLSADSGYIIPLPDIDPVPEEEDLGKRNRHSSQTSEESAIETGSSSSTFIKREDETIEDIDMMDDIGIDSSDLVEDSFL

Molecule: 3-[4-(5-benzylpyrimidin-2-yl)piperazin-1-yl]-6-(1-methyl-1H-pyrazol-3-yl)pyrazolo[1,5-a]pyridine [Compound 38]
- IC50 (PDGFRα; read-out: IC50 Values on PDGFRα Kinase Inhibition, IC50): 4.75 µM
- MBP Fold Induction (Over vehicle) [1]: 1.41
- GPR17 Fold Induction (Over Vehicle; 3 μM) [2]: 7.04
- GPR17 Fold Induction (Over Vehicle; 5 μM) [2]: 6.02

- IC50 Values on PDGFRα Kinase Inhibition, IC50 (nM) (PDGFRα): BLQ
- MBP Fold Induction (Over vehicle) [3]: 5.23
- GPR17 Fold Induction (Over Vehicle; 3 μM) ([4]; 3 μM (10× concentration, final 0.3 μM)): 13.87
- GPR17 Fold Induction (Over Vehicle; 5 μM) ([4]; 5 μM (10× concentration, final 0.5 μM)): 4.97
Molecule: Cn1cc(-c2ccc3c(N4CCN(c5ncc(C(O)c6ccc(F)cc6)cn5)CC4)cnn3c2)cn1 (centres unmarked) [Compound 26, (4-fluorophenyl)(2-{4-[6-(1-methyl-1H-pyrazol-4-yl)pyrazolo[1,5-a]pyridin-3-yl]piperazin-1-yl}pyrimidin-5-yl)methanol]
- fold induction at 3.3 mg/kg [5]: 12.1
- number of newly generated, GPR17+, oligodendrocytes/mm^2 [6]: dose responsive induction

- In vivo GPR17+ cells, GPR17 Fold Induction (Over Vehicle) [7]: 1.36
Molecule: CN(C)CCC=C1c2ccccc2COc2ccccc21 [Doxepin]
